The text below walks through data of patent publication US8536187B2 (Gilead Sciences, Inc., priority 2008, dated 2013).

The nature of data set [1]: CC50 assay (CellTiter-Glo) in Huh-7 HCV replicon cells. It counts as cell-based. The conditions noted are these: human. Put shortly: (§1)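 Cytotoxicity (CC50) read by CellTiter-Glo luminescence after 10 min, and antiviral EC50 by luciferase signal after 30 min lysis with substrate, both at room temperature. Preceding step: 3-day exposure of 6000 Huh-7 HCV replicon cells per well to compound dilution series at 37° C, 5% CO2, in 0.5% DMSO.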
Background: Cellular ATP, detected with luciferase, serves as a proxy for viable cell number.

The test system of data set [2] is HCV replicon in human hepatoma Huh-7 cell line. Kind of data set: Anti-HCV replicon assay, EC50 (luciferase luminescence). It is filed as cell-based. The conditions noted are these: Hepatitis C virus, Huh-7, 72 h. In a few lines: as §1

Usually CC50 stands for the concentration giving 50% cytotoxicity. High values mean better tolerance by the cells, low ones harm at low concentration. By EC50 is commonly meant the concentration that produces a half-maximal response. In data set [1] (Table 2, 3 days incubation), `CCOc1ccc(-c2ccc3nc(N[C@H](C)c4ccc(S(N)(=O)=O)cc4)nc(NCC(F)(F)F)c3n2)cc1S(N)(=O)=O` [Example 261, 4-((R)-1-(6-(4-ethoxy-3-(aminosulfonyl)phenyl)-4-(2,2,2-trifluoroethylamino)pyrido[3,2-d]pyrimidin-2-ylamino)ethyl)benzene-sulfonamide] returned a CC50 at 3 days greater than 10000 nM. The compound further gave a concentration for a half-maximal effect (EC50) in data set [2] of less than 100 nM.

In data set [1] (Table 2, 3 days incubation), `NS(=O)(=O)c1cccc(CNc2nc(NC3(C(F)(F)F)CC3)c3nc(-c4ccc(F)cc4)ccc3n2)c1` [Example 116, 3-((6-(4-fluorophenyl)-4-(1-(trifluoromethyl)cyclopropyl-amino)pyrido[3,2-d]pyrimidin-2-ylamino)methyl)benzene-sulfonamide] gave a 50% cytotoxic concentration (CC50) at 3 days greater than 10000 nM. Moreover, the EC50 in data set [2] was less than 100 nM.

As for `C[C@@H](Nc1nc(NC2(C(F)(F)F)CC2)c2nc(C#CC3CC3)ccc2n1)c1ccc(S(N)(=O)=O)cc1` [Example 69, (R)-4-(1-(6-(2-cyclopropylethynyl)-4-(1-(trifluoromethyl)cyclopropyl-amino)pyrido[3,2-d]pyrimidin-2-ylamino)ethyl)benzene-sulfonamide], the CC50 at 3 days in data set [1] (Table 2, 3 days incubation) was greater than 10000 nM. For the same compound, the EC50 in data set [2] was less than 100 nM.

As for `CCOc1ccc(-c2ccc3nc(NCc4ccc(-n5cncn5)cc4)nc(NCC(F)(F)F)c3n2)cn1` [Example 229, N^2-(4-(1H-1,2,4-triazol-1-yl)benzyl)-6-(6-ethoxypyridin-3-yl)-N^4-(2,2,2-trifluoroethyl) pyrido[3,2-d]pyrimidine-2,4-diamine], the cytotoxic concentration (CC50) at 3 days in data set [1] (Table 2, 3 days incubation) was greater than 10000 nM. In data set [2], this compound returned a 50% effective concentration (EC50) of less than 100 nM.

Compound `CC#Cc1ccc2nc(N[C@H](C)c3ccc(S(N)(=O)=O)cc3)nc(OC3CCC3)c2n1` [Example 310, (R)-4-(1-(4-cyclobutoxy-6-(prop-1-ynyl)pyrido[3,2-d]pyrimidin-2-ylamino)ethyl) benzenesulfonamide] displayed a CC50 at 3 days in data set [1] (Table 2, 3 days incubation) greater than 10000 nM. In data set [2], this compound displayed a concentration giving a half-maximal response (EC50) of less than 100 nM.

With `C#Cc1ccc2nc(N[C@H](C)c3ccc(S(N)(=O)=O)cc3)nc(NCC(F)(F)F)c2n1` [Example 284, (R)-4-(1-(6-ethynyl-4-(2,2,2-trifluoroethylamino)pyrido [3,2-d]pyrimidin-2-ylamino)ethyl)benzenesulfonamide], in data set [1] (Table 2, 3 days incubation), the 50% cytotoxic concentration (CC50) at 3 days was greater than 10000 nM. In data set [2], this compound came in with a 50% effective concentration (EC50) of less than 100 nM.

`Cc1ccc(-c2ccc3nc(NCc4cccc(S(C)(=O)=O)c4)nc(NC4(C(F)(F)F)CC4)c3n2)cc1S(C)(=O)=O` [Example 34, N^2-(3-(methylsulfonyl)benzyl)-6-(4-methyl-3-(methylsulfonyl)phenyl)-N^4-(1-(trifluoromethyl)cyclopropyl) pyrido[3,2-d]pyrimidine-2,4-diamine]: the CC50 at 3 days in data set [1] (Table 2, 3 days incubation) lay in the range of 1000 to 10000 nM. In data set [2], this compound showed a 50% effective concentration (EC50) of less than 100 nM.

As to `C[C@@H](Nc1nc(NCC(F)(F)F)c2nc(C#CC3CC3)ccc2n1)c1ccc(S(N)(=O)=O)cc1` [Example 275, (R)-4-(1-(6-(2-cyclopropyl-ethynyl)-4-(2,2,2-trifluoro-ethylamino)pyrido[3,2-d]pyrimidin-2-ylamino)ethyl) benzenesulfonamide], the CC50 at 3 days in data set [1] (Table 2, 3 days incubation) is greater than 10000 nM. The same compound yielded an EC50 in data set [2] of less than 100 nM.

`COc1ccc(-c2ccc3nc(NCc4ccc(S(N)(=O)=O)cc4)nc(NCC(F)(F)F)c3n2)cc1S(=O)(=O)N1CCOCC1` [Example 227, 4-((6-(4-methoxy-3-(morpholinosulfonyl)phenyl)-4-(2,2,2-trifluoroethylamino)pyrido[3,2-d]pyrimidin-2-ylamino)methyl)benzene-sulfonamide]: in data set [1] (Table 2, 3 days incubation), the CC50 at 3 days is 1000 to 10000 nM. In addition, in data set [2], the half-maximal effective concentration (EC50) was less than 100 nM.

Compound `COc1ccc(-c2ccc3nc(NCc4ccc(S(N)(=O)=O)cc4)nc(NC(C(F)(F)F)C(F)(F)F)c3n2)cc1S(C)(=O)=O` [Example 151, 4-((4-(1,1,1,3,3,3-hexafluoropropan-2-ylamino)-6-(4-methoxy-3-(methylsulfonyl)phenyl)pyrido[3,2-d]pyrimidin-2-ylamino)methyl)benzene-sulfonamide] gave a cytotoxic concentration (CC50) at 3 days in data set [1] (Table 2, 3 days incubation) of 1000 to 10000 nM. In addition, the EC50 in data set [2] was less than 100 nM.

In the case of `Fc1ccc(-c2ccc3nc(NCc4cccc(-n5cncn5)c4)nc(NCC(F)(F)F)c3n2)cc1` [Example 1, 6-(4-Fluoro-phenyl)-N2-(3-[1,2,4]-triazol-1-yl-benzyl)-N4-(2,2,2-trifluoro-ethyl)-pyrido[3,2-d]pyrimidine-2,4-diamine], the CC50 at 3 days in data set [1] (Table 1, 3 days incubation) was greater than 25000 nM. Moreover, the EC50 in data set [2] lay in the range of 100 to 250 nM.

Compound `CS(=O)(=O)c1cccc(-c2ccc3nc(NCc4ccc(-n5cncn5)cc4)nc(OC4CCC4)c3n2)c1` [Example 202, N-(4-(1H-1,2,4-triazol-1-yl)benzyl)-4-cyclobutoxy-6-(3-(methylsulfonyl)phenyl)pyrido [3,2-d]pyrimidin-2-amine] gave a half-maximal cytotoxic concentration (CC50) at 3 days in data set [1] (Table 2, 3 days incubation) greater than 10000 nM. In data set [2], this compound returned an EC50 of less than 100 nM.

As to `COc1ccc(-c2ccc3nc(NCc4ccc(S(N)(=O)=O)cc4)nc(NCC(F)(F)F)c3n2)cc1S(=O)(=O)C1CC1` [Example 157, 4-((6-(3-(cyclopropylsulfonyl)-4-methoxyphenyl)-4-(2,2,2-trifluoroethylamino)pyrido [3,2-d]pyrimidin-2-ylamino)methyl)benzenesulfonamide], the cytotoxic concentration (CC50) at 3 days in data set [1] (Table 2, 3 days incubation) was greater than 10000 nM. In data set [2], this compound showed an EC50 of less than 100 nM.

With `CS(=O)(=O)c1cccc(-c2ccc3nc(NCc4ccc(-n5cncn5)cc4)nc(NCC(F)(F)F)c3n2)c1` [Example 163, N^2-(4-(1H-1,2,4-triazol-1-yl)benzyl)-6-(3-(methylsulfonyl)phenyl)-N^4-(2,2,2-trifluoroethyl) pyrido[3,2-d]pyrimidine-2,4-diamine], the CC50 at 3 days in data set [1] (Table 2, 3 days incubation) was greater than 10000 nM. The compound further showed an EC50 in data set [2] of less than 100 nM.

Compound `NS(=O)(=O)c1cc(CNc2nc(NC3(C(F)(F)F)CC3)c3nc(C#CC4CC4)ccc3n2)cc(C(F)(F)F)c1` [Example 106, 3-((6-(2-cyclopropylethynyl)-4-(1-(trifluoromethyl)cyclo-propylamino)pyrido[3,2-d]pyrimidin-2-ylamino)methyl)-5-(trifluoromethyl)benzene-sulfonamide] returned a CC50 at 3 days in data set [1] (Table 2, 3 days incubation) greater than 10000 nM. The 50% effective concentration (EC50) in data set [2] was less than 100 nM.

For the compound `CC1(Oc2nc(NCc3ccc(-n4cncn4)cc3)nc3ccc(-c4ccc(OC(F)F)c(S(C)(=O)=O)c4)nc23)CC1` [Example 191, N-(4-(1H-1,2,4-triazol-1-yl)benzyl)-6-(4-(difluoro-methoxy)-3-(methylsulfonyl)phenyl)-4-(1-methylcyclo-propoxy)pyrido[3,2-d] pyrimidin-2-amine], in data set [1] (Table 2, 3 days incubation), the cytotoxic concentration (CC50) at 3 days is greater than 10000 nM. In data set [2], the EC50 was less than 100 nM.

In data set [1] (Table 1, 3 days incubation), `Fc1ccc(-c2ccc3nc(NCc4cccc(-n5cccn5)c4)nc(NCC(F)(F)F)c3n2)cc1` [Example 2, 6-(4-Fluoro-phenyl)-N2-(3-pyrazol-1-yl-benzyl)-N4-(2,2,2-trifluoro-ethyl)-pyrido[3,2-d]pyrimidine-2,4-diamine] came in with a CC50 at 3 days greater than 25000 nM. The same compound returned an EC50 in data set [2] of less than 100 nM.

With `NS(=O)(=O)c1cc(CNc2nc(NCC(F)(F)F)c3nc(-c4ccc(F)cc4)ccc3n2)cc(C(F)(F)F)c1` [Example 8, 3-{[6-(4-Fluoro-phenyl)-4-(2,2,2-trifluoro-ethylamino)-pyrido[3,2-d]pyrimidin-2-ylamino]-methyl}-5-trifluoromethyl-benzenesulfonamide], in data set [1] (Table 1, 3 days incubation), the half-maximal cytotoxic concentration (CC50) at 3 days was greater than 25000 nM. For the same compound, the EC50 in data set [2] lay in the range of 250 to 2000 nM.

For the compound `CC#Cc1ccc2nc(N[C@H](C)c3ccc(S(N)(=O)=O)cc3)nc(OC3(C)CC3)c2n1` [Example 302, (R)-4-(1-(4-(1-methylcyclo-propoxy)-6-(prop-1-ynyl)pyrido[3,2-d]pyrimidin-2-ylamino)ethyl)benzene-sulfonamide], in data set [1] (Table 2, 3 days incubation), the cytotoxic concentration (CC50) at 3 days is greater than 10000 nM. The compound also displayed an EC50 in data set [2] of less than 100 nM.

The compound `FC(F)(F)C1(Nc2nc(NCc3ccc(-n4cncn4)cc3)nc3ccc(-c4ccc(NC5CC5)nc4)nc23)CC1` [Example 127, N^2-(4-(1H-1,2,4-triazol-1-yl)benzyl)-6-(6-(cyclopropylamino)pyridin-3-yl)-N^4-(1-(trifluoromethyl)cyclopropyl)pyrido[3,2-d] pyrimidine-2,4-diamine] came in with a CC50 at 3 days in data set [1] (Table 2, 3 days incubation) of 1000 to 10000 nM. The compound further showed a 50% effective concentration (EC50) in data set [2] of less than 100 nM.

In the case of `Cc1cc(S(N)(=O)=O)c(C)cc1CNc1nc(NC2(C(F)(F)F)CC2)c2nc(-c3ccc(F)cc3)ccc2n1` [Example 83, 4-((6-(4-fluorophenyl)-4-(1-(trifluoromethyl)cyclopropylamino)pyrido[3,2-d]pyrimidin-2-ylamino)methyl)-2.5-dimethylbenzenesulfonamide], the half-maximal cytotoxic concentration (CC50) at 3 days in data set [1] (Table 2, 3 days incubation) was greater than 10000 nM. For the same compound, the half-maximal effective concentration (EC50) in data set [2] lay within 100 to 250 nM.

With `C#Cc1ccc2nc(NCc3ccc(S(N)(=O)=O)cc3)nc(NCC(F)(F)F)c2n1` [Example 288, 4-((6-ethynyl-4-(2,2,2-trifluoroethylamino)pyrido [3,2-d]pyrimidin-2-ylamino)methyl)benzenesulfonamide], the CC50 at 3 days in data set [1] (Table 2, 3 days incubation) lay within 1000 to 10000 nM. In data set [2], this compound yielded an EC50 of less than 100 nM.

As for `C=Cc1ccc2nc(NCc3cc(Cl)cc(S(N)(=O)=O)c3)nc(OC3(C)CC3)c2n1` [Example 303, 3-chloro-5-((4-(1-methylcyclo-propoxy)-6-vinylpyrido[3,2-d]pyrimidin-2-ylamino)methyl) benzenesulfonamide], the half-maximal cytotoxic concentration (CC50) at 3 days in data set [1] (Table 2, 3 days incubation) is greater than 10000 nM. In addition, the EC50 in data set [2] fell in the range of 100 to 250 nM.

Turning to `CC#Cc1ccc2nc(N[C@H](C)c3ccc(S(N)(=O)=O)cc3)nc(O[C@@H]3C[C@@H]4C[C@@H]4C3)c2n1` [Example 313, 4-((R)-1-(4-((1S,3r,5R)-bicyclo[3.1.0]hexan-3-yloxy)-6-(prop-1-ynyl)pyrido[3,2-d]pyrimidin-2-ylamino)ethyl) benzenesulfonamide], the half-maximal cytotoxic concentration (CC50) at 3 days in data set [1] (Table 2, 3 days incubation) is greater than 10000 nM. The compound also came in with an EC50 in data set [2] of less than 100 nM.

In turn, `CS(=O)(=O)c1cccc(-c2ccc3nc(NCc4ccc(S(N)(=O)=O)cc4)nc(NCC(F)(F)F)c3n2)c1` [Example 15, 4-{[6-(3-Methanesulfonyl-phenyl)-4-(2,2,2-trifluoro-ethylamino)-pyrido[3,2-d]pyrimidin-2-ylamino]-methyl}-benzenesulfonamide] showed a cytotoxic concentration (CC50) at 3 days in data set [1] (Table 1, 3 days incubation) greater than 25000 nM. This compound also yielded an EC50 in data set [2] of less than 100 nM.
